Laboratory results published in ChEMBL document CHEMBL1201862, “PubChem BioAssay data set” (2004).
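Growth conditions: 96-well plates. Treatment: test compound, 48 hours, 5 concentrations. Analysis: linear interpolation between bracketing concentrations; unreached endpoints set to highest concentration. GI50 is the concentration that inhibits growth by half.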 Active and inactive are the calls of the source. Cut-off read from the data, not from the text of the source: active = GI50 up to about 1.1 µM and inactive = higher.

Experiments:
Test in all cases: NCI anticancer screen, dose series, 48 h
DMS-114 = system: DMS-114
XF498 = system: XF498
M19-MEL = system: M19-MEL
BT-549 = system: BT-549
DLD-1 = system: DLD-1
HOP-18 = system: HOP-18
RXF 631 = system: RXF 631
DMS-273 = system: DMS-273
KM-20L2 = system: KM-20L2

For `O=[N+]([O-])c1ccc(C2=Nn3c(nnc3-c3ccc(Cl)cc3)SC2)o1`, the GI50 (DMS-114) was 4.11 µM (inactive), the GI50 (XF498) was 14.3 µM (inactive) and the GI50 (M19-MEL) was 2.78 µM (inactive). The GI50 (BT-549) was 11.4 µM (inactive), the GI50 (DLD-1) was 2.06 µM (inactive) and the GI50 (HOP-18) was 19.2 µM (inactive). The GI50 (RXF 631) was 10.9 µM (inactive), the GI50 (DMS-273) was 14 µM (inactive) and the GI50 (KM-20L2) was 5.94 µM (inactive).

For `O=C(O)C1=C(Cl)c2ccccc2S1(=O)=O`, the GI50 (DMS-114) was > 100 µM (inactive), the GI50 (XF498) was > 100 µM (inactive) and the GI50 (M19-MEL) was > 100 µM (inactive). The GI50 (DLD-1) was > 100 µM (inactive), the GI50 (RXF 631) was > 100 µM (inactive) and the GI50 (KM-20L2) was > 100 µM (inactive).

With `CC1=CP(=O)(OC(C)C)C=C(C)C1=C(Cl)Cl` (stereo unspecified) the GI50 (DMS-114) was 50.1 µM (inactive), the GI50 (XF498) was > 100 µM (inactive) and the GI50 (M19-MEL) was 38.4 µM (inactive). The GI50 (DLD-1) was > 100 µM (inactive), the GI50 (HOP-18) was > 100 µM (inactive) and the GI50 (RXF 631) was 11.8 µM (inactive). For the same compound, the GI50 (DMS-273) was 44.7 µM (inactive) and the GI50 (KM-20L2) was 39.1 µM (inactive).

With `CN(C(=O)c1ccc([N+](=O)[O-])cc1)c1ccccc1` the GI50 (DMS-114) was > 10 µM (inactive), the GI50 (XF498) was > 100 µM (inactive) and the GI50 (M19-MEL) was > 100 µM (inactive). The GI50 (DLD-1) was > 100 µM (inactive), the GI50 (HOP-18) was > 100 µM (inactive) and the GI50 (RXF 631) was > 100 µM (inactive). The GI50 (DMS-273) was > 100 µM (inactive) and the GI50 (KM-20L2) was > 100 µM (inactive).

With `CC(C)(c1ccc(Oc2ccc(C#N)c(C#N)c2)cc1)c1ccc(Oc2ccc(C#N)c(C#N)c2)cc1` the GI50 (DMS-114) was > 10 µM (inactive), the GI50 (XF498) was > 10 µM (inactive) and the GI50 (M19-MEL) was > 10 µM (inactive). The GI50 (DLD-1) was > 10 µM (inactive), the GI50 (HOP-18) was > 10 µM (inactive) and the GI50 (RXF 631) was > 10 µM (inactive). For the same compound, the GI50 (KM-20L2) was > 10 µM (inactive).

`C=CC/N=C1\N=C(C)C(C(=O)OCC)S1` (stereo unspecified) was tested, and the GI50 (DMS-114) was > 100 µM (inactive), the GI50 (XF498) was > 100 µM (inactive) and the GI50 (DLD-1) was > 100 µM (inactive). For the same compound, the GI50 (HOP-18) was > 100 µM (inactive), the GI50 (RXF 631) was > 100 µM (inactive) and the GI50 (DMS-273) was > 100 µM (inactive). The GI50 (KM-20L2) was > 100 µM (inactive).

With `C[Si]1(C)C(c2ccccc2)=CC2C(c3ccccc3)(c3ccccc3)OC21c1ccccc1` (stereo unspecified) the GI50 (DMS-114) was 97.9 µM (inactive), the GI50 (XF498) was > 100 µM (inactive) and the GI50 (M19-MEL) was > 100 µM (inactive). For the same compound, the GI50 (DLD-1) was > 100 µM (inactive), the GI50 (HOP-18) was > 100 µM (inactive) and the GI50 (RXF 631) was > 100 µM (inactive). The GI50 (DMS-273) was > 100 µM (inactive) and the GI50 (KM-20L2) was 92.9 µM (inactive).

For `COc1ccc2nc3ccccc3c(NCCCCCCN(CCCl)CCCl)c2c1`, the GI50 (DMS-114) was 0.155 µM (active), the GI50 (XF498) was 0.136 µM (active) and the GI50 (M19-MEL) was 0.132 µM (active). For the same compound, the GI50 (BT-549) was 0.323 µM (active), the GI50 (DLD-1) was 0.109 µM (active) and the GI50 (RXF 631) was 0.104 µM (active). The GI50 (DMS-273) was 0.0328 µM (active) and the GI50 (KM-20L2) was 0.0776 µM (active).
